Values of other authors, collected in patent US5179079A, “Nasal formulation and intranasal administration therewith” (Novo Nordisk A/S, priority 1986, dated 1993).

Details: compared with intravenous administration

SMILES | blood levels after absorption from the nasal cavity
CC(=O)[C@H]1CC[C@H]2[C@@H]3CCC4=CC(=O)CC[C@]4(C)[C@H]3CC[C@]12C [progesterone] | blood levels almost equal to intraveneous administration
CC(C)NCC(O)COc1cccc2ccccc12 (centres unmarked) [propranolol] | blood levels almost equal to intraveneous administration
